Laboratory results: patent publication EP0306251A2, “Azolidinedione derivatives” (PFIZER INC., priority 1987, dated 1989)
Values belong to the molecule of their own block, whether it stands above or below them.

Columns and labels:
[1] = target: T1, partially purified aldose reductase enzyme obtained from human placenta (Homo sapiens, UniProt P15121); test: inhibition of aldose reductase enzyme activity (procedure of Hayman et al., modified by Sestanj et al.); format: biochemical; details: 10^-5M
T1 construct: partially purified aldose reductase enzyme obtained from human placenta; from tissue; host or cells: human placenta
Experimental: The following spiro-3-heteroazolone compounds of Examples 4A, 4B, 6-9, 10A, 10B and 14, respectively, were tested for their ability to reduce or inhibit aldose reductase enzyme activity via the procedure of S. Hayman et al., as described in the Journal of Biological Chemistry, Vol. 240, p. 877 (1965) and as modified by K. Sestanj et al. in U.S. Patent No. 3,821,383. In every case, the substrate .employed was partially purified aldose reductase enzyme obtained from human placenta.

[2] = test system: sorbitol accumulation in the sciatic nerve and lens of streptozotocinized (i.e., diabetic) rats; test: inhibition of sorbitol accumulation in sciatic nerve and lens of streptozotocinized rats; format: in vivo; details: for Percent Inhibition (%) Lens / Percent Inhibition (%) Sciatic Nerve: sorbitol measured at 27 hours
Experimental: The following spiro-3-heteroazolone compounds of Examples 4A, 4B, 6 and 10A, respectively, were tested for their ability to reduce or inhibit sorbitol accumulation in the sciatic nerve and lens of streptozotocinized (i.e., diabetic) rats by the procedure essentially described in U.S. Patent No. 3,821,383. In the present study, the amount of sorbitol accumulation in the sciatic nerve and lens of each test animal was measured 27 hours after induction of diabetes. The compounds were then administered orally at the dose levels indicated at 4, 8 and 24 hours following the administration of streptozotocin. The results obtained in this manner are presented below in terms of percent inhibition (%) afforded by the test compound as compared to the case where no compound was administered (i.e., the untreated animal where sorbitol levels normally rise from approximately 50-100 mM/g. tissue to as high as 400 mM/g. tissue in the 27-hour test period): […]

[3] = 0.25 mg./kg. orally at 4, 8 and 24 hours after streptozotocin
[4] = 5.0 mg./kg. orally at 4, 8 and 24 hours after streptozotocin
[5] = 1.0 mg./kg. orally at 4, 8 and 24 hours after streptozotocin
[6] = 0.1 mg./kg. orally at 4, 8 and 24 hours after streptozotocin

SMILES: C[C@@H]1C[C@]2(NC(=O)NC2=O)c2cc(Cl)cnc2O1 (racemic) [Product of Example 4A, (±)-cis-8'-chloro-2',3'-dihydro-2'-methyl-spiro-[imidazolidine-4,4'-4'H-pyrano[2,3-b]pyridine]-2,5-dione]
inhibition at 10 µM [1]: 83%
Percent Inhibition (%) Lens [2, 3]: 22%
Percent Inhibition (%) Lens [2, 4]: 89%
Percent Inhibition (%) Sciatic Nerve [2, 3]: 34%
Percent Inhibition (%) Sciatic Nerve [2, 4]: 98%

SMILES: CC1CC2(NC(=O)NC2=O)c2cc(Cl)cnc2O1 (racemic) [Product of Example 4B, (±)-trans-6'-chloro-2',3'-dihydro-2'-methyl-spiro-[imidazolidine-4,4'-4'H-pyrano[2,3-b]pyridine]-2,5-dione]
inhibition at 10 µM [1]: 77%
Percent Inhibition (%) Lens [2, 3]: 32%
Percent Inhibition (%) Sciatic Nerve [2, 3]: 13%

SMILES: C[C@@H]1C[C@]2(NC(=O)NC2=O)c2cc(Br)cnc2O1 (racemic) [Product of Example 6, (±)-cis-6'-bromo-2',3'-dihydro-2'-methyl-spiro-[imidazolidine-4,4'-4'H-pyrano[2,3-b]pyridine]-2,5-dione]
inhibition at 10 µM [1]: 80%
Percent Inhibition (%) Lens [2, 5]: 67%
Percent Inhibition (%) Sciatic Nerve [2, 5]: 73%

SMILES: O=C1NC(=O)C2(CCOc3ncc(Cl)cc32)N1 (racemic) [Product of Example 7, (±)-6-chloro-2',3'-dihydro-spiro-[imidazolidine-4,4'-4'H-pyrano[2,3-b]pyridine]-2,5-dione]
inhibition at 10 µM [1]: 60%

SMILES: C[C@@H]1C[C@]2(NC(=O)NC2=O)c2cccnc2O1 (racemic) [Product of Example 8, (±)-cis-2',3'-dihydro-2'methyl-spiro-[imidazolidine-4, 4'-4'H-pyrano[2,3-b]pyridine]-2,5-dione]
inhibition at 10 µM [1]: 57%

More lines, main results first:

inhibition at 10 µM [1]: 77%
SMILES: C[C@@H]1C[C@]2(NC(=O)NC2=O)c2cc(F)cnc2O1 (racemic) [Product of Example 9, (±)-cis-6'-fluoro-2',3'-dihydro-2'-methyl-spiro-[imidazolidine-4,4'-4H-pyrano-[2,3-b]pyridine]-2,5-dione]

inhibition at 10 µM [1]: 100%
SMILES: C[C@@H]1C[C@]2(NC(=O)NC2=O)c2cc(Cl)cnc2O1 [Product of Example 10A, (4'S)(2'R)-6'-chloro-2',3'-dihydro-2'-methyl-spiro-[imidazolidine-4,4'-4'H-pyrano[2,3-b]pyridine]-2,5-dione]
Percent Inhibition (%) Lens [2, 6]: 33%
Percent Inhibition (%) Lens [2, 5]: 73%
inhibit the formation of sorbitol levels in both the sciatic nerve and lens of diabetic rats ([2]; oral route, dose levels ranging from 0.1-10.0 mg./kg., sciatic nerve and lens): significantly high degree
Percent Inhibition (%) Sciatic Nerve [2, 6]: 43%
Percent Inhibition (%) Sciatic Nerve [2, 5]: 78%

inhibition at 10 µM [1]: 100%
SMILES: C[C@H]1C[C@@]2(NC(=O)NC2=O)c2cc(Cl)cnc2O1 [Product of Example 10B, (2'S)(4'R)-6'-chloro-2',3^1-dihydro-2'-methyl-spiro-[imidazolidine-4,4'-4'H-pyrano[2,3-b]pyridine]-2,5-dione]

inhibition at 10 µM [1]: 79%
SMILES: C[C@@H]1C[C@]2(NC(=O)NC2=O)c2cc(Cl)c[n+]([O-])c2O1 [Product of Example 14, (4'S)(2'R)-6'-chloro-2',3'-dihydro-2'-methyl-spiro-[imidazolidine-4,4'-4'H-pyrano[2,3-b]pyridine]-2,5-dione-8'-oxide]
